Assay results published in patent US8211890B2, “5-amino-2-(1-hydroxy-ethyl)-tetrahydropyran derivatives” (Actelion Pharmaceuticals, priority 2008, dated 2012).
In brackets after ≈: the same amount, converted by molar mass.

What follows are molecules tested against hERG K+ channel (Homo sapiens, UniProt Q12809) (assay: In vitro blocking of hERG K+ channels (QPatch automated patch-clamp, CHO-K1 cells)). Settings: pH 7.4, at 10 μM, CHOhERG cells, 4 minutes of stimulation, average block on two cells.
hERG K+ channel, sequence (Q12809 whole entry): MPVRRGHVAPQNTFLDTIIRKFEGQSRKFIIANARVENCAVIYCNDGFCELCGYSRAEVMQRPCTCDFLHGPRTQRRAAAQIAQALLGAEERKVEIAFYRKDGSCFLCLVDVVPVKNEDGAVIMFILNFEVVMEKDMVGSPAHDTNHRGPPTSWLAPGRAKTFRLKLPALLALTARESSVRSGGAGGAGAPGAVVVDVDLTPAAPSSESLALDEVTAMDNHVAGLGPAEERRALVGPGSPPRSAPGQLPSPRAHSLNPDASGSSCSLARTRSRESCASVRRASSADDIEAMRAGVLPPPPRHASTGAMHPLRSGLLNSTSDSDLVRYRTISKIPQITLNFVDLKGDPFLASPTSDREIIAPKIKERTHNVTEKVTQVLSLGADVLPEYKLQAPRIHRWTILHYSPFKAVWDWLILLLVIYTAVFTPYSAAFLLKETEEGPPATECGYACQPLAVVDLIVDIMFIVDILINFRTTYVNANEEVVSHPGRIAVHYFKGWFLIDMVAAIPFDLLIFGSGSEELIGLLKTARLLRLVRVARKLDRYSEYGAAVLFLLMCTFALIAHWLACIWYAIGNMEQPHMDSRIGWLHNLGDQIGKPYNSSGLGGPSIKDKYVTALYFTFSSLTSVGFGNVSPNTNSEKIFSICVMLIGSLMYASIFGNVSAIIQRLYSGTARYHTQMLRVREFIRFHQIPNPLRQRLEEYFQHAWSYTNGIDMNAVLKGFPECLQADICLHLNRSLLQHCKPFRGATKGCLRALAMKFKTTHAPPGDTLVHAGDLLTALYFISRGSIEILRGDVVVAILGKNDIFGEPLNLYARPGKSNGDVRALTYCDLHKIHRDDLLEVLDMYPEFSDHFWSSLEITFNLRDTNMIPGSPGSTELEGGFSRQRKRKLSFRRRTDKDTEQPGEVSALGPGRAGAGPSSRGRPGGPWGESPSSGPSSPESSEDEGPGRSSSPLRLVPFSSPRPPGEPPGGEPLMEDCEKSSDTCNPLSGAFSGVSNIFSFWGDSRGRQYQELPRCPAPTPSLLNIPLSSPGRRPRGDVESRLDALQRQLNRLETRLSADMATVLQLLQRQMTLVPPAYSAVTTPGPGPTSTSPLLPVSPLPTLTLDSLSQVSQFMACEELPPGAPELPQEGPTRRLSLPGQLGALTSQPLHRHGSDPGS
Type: cell-based
Experimental: hERG K^+ channels have been cloned from human heart and recombinant channels are stably expressed in CHO-K1 cells (CHOhERG). These cells have been purchased from bSys GmbH (CH-4052 Basel, Switzerland) and are grown in 150 mL culture flasks at 37° C. in 5% CO2. When the cells are ˜100% confluent, they are detached with 0.25% trypsin-EDTA solution and placed in the cell preparation unit of a QPatch automated patch-clamp robot (Sophion Bioscience A/S, 2750 Ballerup, Denmark). Currents through the hERG K^+ channels (IKhERG) are elicited using the following buffer solutions and voltage protocol: • extracellular solution (in mM): [NaCl]=150; [KCl]=4; [CaCl2]=1.2; [MgCl2]=1; [HEPES]=10; pH adjusted to 7.4 with NaOH; • intracellular solution (in mM): [KCl]=140; [NaCl]=10; [MgCl2]=1; [HEPES]=10; [EGTA]=5; [Mg-ATP]=5; […] After the cells have stabilized for a few minutes and the currents are steady, the amplitude of IKhERG is recorded under control conditions. Thereafter, the QPatch robot applies the test compound to the cell at the test concentration and, after 4 minutes of stimulation, the amplitude of IKhERG is recorded under test conditions. The ratio of the two amplitudes is used to define a fractional block and the average block on two cells is used to provide the effect of a given concentration (e.g. 10 μM). If, for a given test compound, a sufficient number of concentrations were tested, an apparent IC50 for inhibition of IKhERG is calculated.

Molecule	inhibition at 4 min, 10 µM
COc1ccc2ncc(F)c(C[C@H](O)[C@@H]3CC[C@@H](NCc4cc5c(cn4)OCCO5)CO3)c2n1 [Example 3, (1S)-1-{(2S,5R)-5-[(2,3-dihydro-[1,4]dioxino[2,3-c]pyridin-7-ylmethyl)-amino]-tetrahydro-pyran-2-yl}-2-(3-fluoro-6-methoxy-[1,5]naphthyridin-4-yl)-ethanol]	29%
COc1ccc2ncc(F)c(C[C@H](O)[C@@H]3CC[C@@H](NCc4cc5c(nn4)OCCO5)CO3)c2n1 [Example 4, (1S)-1-{(2S,5R)-5-[(6,7-dihydro-[1,4]dioxino[2,3-c]pyridazin-3-ylmethyl)-amino]-tetrahydro-pyran-2-yl}-2-(3-fluoro-6-methoxy-[1,5]naphthyridin-4-yl)-ethanol]	5%

The molecules below were run on S. aureus A798 (assay: Bacterial growth minimal inhibitory concentrations (microdilution, cation-adjusted Mueller-Hinton Broth)). Settings: Staphylococcus aureus, microdilution.
Type: cell-based
Experimental: Minimal inhibitory concentrations (MICs; mg/l) were determined in cation-adjusted Mueller-Hinton Broth by a microdilution method following the description given in “Methods for Dilution Antimicrobial Susceptibility Tests for Bacteria that Grow Aerobically”, Approved standard, 7th ed., Clinical and Laboratory Standards Institute (CLSI) Document M7-A7, Wayne, Pa., USA, 2006.

Molecule	MIC
COc1ccc2ccc(F)c(C[C@H](O)[C@@H]3CC[C@@H](NCc4cc5c(cn4)OCCS5)CO3)c2n1 [Example 7, (1S)-1-{(2S,5R)-5-[(2,3-dihydro-4-oxa-1-thia-6-aza-naphthalen-7-ylmethyl)-amino]-tetrahydro-pyran-2-yl}-2-(7-fluoro-2-methoxy-quinolin-8-yl)-ethanol]	≤ 0.031 µg/mL
COc1ccc2ccc(F)c(C[C@H](O)[C@@H]3CC[C@@H](NCc4cc5c(cn4)OCCO5)CO3)c2n1 [Example 5, (1S)-1-{(2S,5R)-5-[(2,3-dihydro-[1,4]dioxino[2,3-c]pyridin-7-ylmethyl)-amino]-tetrahydro-pyran-2-yl}-2-(7-fluoro-2-methoxy-quinolin-8-yl)-ethanol]	≤ 0.031 µg/mL
[2H]C(c1c(F)cnc2ccc(OC)nc12)[C@H](O)[C@@H]1CC[C@@H](NCc2cc3c(cn2)OCCS3)CO1 (stereo partly drawn) [Example 21, (S)-1-((2S,5R)-5-(((2,3-dihydro-[1,4]oxathiino[2,3-c]pyridin-7-yl)methyl)amino)tetrahydro-2H-pyran-2-yl)-2-(3-fluoro-6-methoxy-1,5-naphthyridin-4-yl)ethanol-2-d1]	≤ 0.031 µg/mL
COc1ccc2ncc(F)c(C[C@H](O)[C@@H]3CC[C@@H](NCc4cc5c(cn4)OCCC5)CO3)c2n1 [Example 10, (1S)-1-{(2S,5R)-5-[(3,4-dihydro-2H-pyrano[2,3-c]pyridin-6-ylmethyl)-amino]-tetrahydro-pyran-2-yl}-2-(3-fluoro-6-methoxy-[1,5]naphthyridin-4-yl)-ethanol]	≤ 0.031 µg/mL
[2H]C(c1c(F)cnc2ccc(OC)nc12)[C@H](O)[C@@H]1CC[C@@H](NCc2cc3c(cn2)OCCO3)CO1 (stereo partly drawn) [Example 20, (1S)-1-((2S,5R)-5-(((2,3-dihydro-[1,4]dioxino-[2,3-c]pyridin-7-yl)methyl)amino)tetrahydro-2H-pyran-2-yl)-2-(3-fluoro-6-methoxy-1,5-naphthyridin-4-yl)ethanol-2-d1]	≤ 0.031 µg/mL
COc1ccc2ncc(F)c(C[C@H](O)[C@@H]3CC[C@@H](NCc4cc5c(cn4)OCCO5)CO3)c2n1 [Example 3, (1S)-1-{(2S,5R)-5-[(2,3-dihydro-[1,4]dioxino[2,3-c]pyridin-7-ylmethyl)-amino]-tetrahydro-pyran-2-yl}-2-(3-fluoro-6-methoxy-[1,5]naphthyridin-4-yl)-ethanol]	≤ 0.031 µg/mL
COc1ccc2ncc(F)c(C[C@H](O)[C@@H]3CC[C@@H](NCc4cc5c(nn4)OCCS5)CO3)c2n1 [Example 11, (1S)-1-{(2S,5R)-5-[(6,7-dihydro-8-oxa-5-thia-1,2-diaza-naphthalen-3-ylmethyl)-amino]-tetrahydro-pyran-2-yl}-2-(3-fluoro-6-methoxy-[1,5]naphthyridin-4-yl)-ethanol]	≤ 0.031 µg/mL
COc1ccc2ccc(F)c(C[C@H](O)[C@@H]3CC[C@@H](NCc4cc5c(cn4)OCS5)CO3)c2n1 [Example 9, (1S)-2-(7-fluoro-2-methoxy-quinolin-8-yl)-1-{(2S,5R)-5-[(3-oxa-1-thia-5-aza-indan-6-ylmethyl)-amino]-tetrahydro-pyran-2-yl}-ethanol]	≤ 0.031 µg/mL
[2H]C(N[C@@H]1CC[C@@H]([C@@H](O)Cc2c(F)cnc3ccc(OC)nc23)OC1)c1cc2c(nn1)OCCS2 (stereo partly drawn) [Example 23, (S)-1-{(2S,5R)-5-[(6,7-dihydro-8-oxa-5-thia-1,2-diaza-naphthalen-3-ylmethyl-d1)-amino]-tetrahydro-pyran-2-yl}-2-(3-fluoro-6-methoxy-[1,5]naphthyridin-4-yl)-ethanol]	≤ 0.031 µg/mL
COc1cnc2ccc(F)c(C[C@H](O)[C@@H]3CC[C@@H](NCc4cc5c(cn4)OCCS5)CO3)c2n1 [Example 14, (1S)-1-{(2S,5R)-5-[(2,3-dihydro-4-oxa-1-thia-6-aza-naphthalen-7-ylmethyl)-amino]-tetrahydro-pyran-2-yl}-2-(6-fluoro-3-methoxy-quinoxalin-5-yl)-ethanol]	≤ 0.031 µg/mL
[2H]C([2H])(N[C@@H]1CC[C@@H]([C@@H](O)Cc2c(F)cnc3ccc(OC)nc23)OC1)c1cc2c(cn1)OCCO2 [Example 24, (1S)-1-((2S,5R)-5-(((2,3-dihydro-[1,4]dioxino [2,3-c]pyridin-7-yl)methyl-d2)amino)tetrahydro-2H-pyran-2-yl)-2-(3-fluoro-6-methoxy-1,5-naphthyridin-4-yl)ethanol]	≤ 0.031 µg/mL
COc1cnc2ccc(F)c(C[C@H](O)[C@@H]3CC[C@@H](NCc4cc5c(cn4)OCCO5)CO3)c2n1 [Example 12, (1S)-1-{(2S,5R)-5-[(2,3-dihydro-[1,4]dioxino[2,3-c]pyridin-7-ylmethyl)-amino]-tetrahydro-pyran-2-yl}-2-(6-fluoro-3-methoxy-quinoxalin-5-yl)-ethanol]	≤ 0.031 µg/mL
COc1ccc2ncc(F)c(C[C@H](O)[C@@H]3CC[C@@H](NCc4cc5c(cn4)OCS5)CO3)c2n1 [Example 8, (1S)-2-(3-fluoro-6-methoxy-[1,5]naphthyridin-4-yl)-1-{(2S,5R)-5-[(3-oxa-1-thia-5-aza-indan-6-ylmethyl)-amino]tetrahydro-pyran-2-yl}-ethanol]	≤ 0.031 µg/mL
COc1ccc2ncc(F)c(C[C@H](O)[C@@H]3CC[C@@H](NCc4cc5c(nn4)OCCO5)CO3)c2n1 [Example 4, (1S)-1-{(2S,5R)-5-[(6,7-dihydro-[1,4]dioxino[2,3-c]pyridazin-3-ylmethyl)-amino]-tetrahydro-pyran-2-yl}-2-(3-fluoro-6-methoxy-[1,5]naphthyridin-4-yl)-ethanol]	≤ 0.031 µg/mL
COc1ccc2nccc(C[C@H](O)[C@@H]3CC[C@@H](NCc4cc5c(nn4)OCCO5)CO3)c2n1 [Example 2, (1S)-1-{(2S,5R)-5-[(6,7-dihydro-[1,4]dioxino[2,3-c]pyridazin-3-ylmethyl)-amino]-tetrahydro-pyran-2-yl}-2-(6-methoxy-[1,5]naphthyridin-4-yl)-ethanol]	0.25 µg/mL (≈ 0.551 µM)
[2H]C(N[C@@H]1CC[C@@H]([C@@H](O)Cc2c(F)cnc3ccc(OC)nc23)OC1)c1cc2c(cn1)OCCO2 (stereo partly drawn) [Example 16, (1S)-1-((2S,5R)-5-(((2,3-dihydro-[1,4]dioxino[2,3-c]pyridin-7-yl)methyl-d1)amino)tetrahydro-2H-pyran-2-yl)-2-(3-fluoro-6-methoxy-1,5-naphthyridin-4-yl)ethanol]	≤ 0.031 µg/mL
COc1cnc2ccc(F)c(C[C@H](O)[C@@H]3CC[C@@H](NCc4cc5c(nn4)OCCS5)CO3)c2n1 [Example 15, (1S)-1-{(2S,5R)-5-[(6,7-dihydro-8-oxa-5-thia-1,2-diaza-naphthalen-3-ylmethyl)-amino]-tetrahydro-pyran-2-yl}-2-(6-fluoro-3-methoxy-quinoxalin-5-yl)-ethanol]	≤ 0.031 µg/mL
COc1cnc2ccc(F)c(C[C@H](O)[C@@H]3CC[C@@H](NCc4cc5c(nn4)OCCO5)CO3)c2n1 [Example 13, (1S)-1-{(2S,5R)-5-[(6,7-dihydro-[1,4]dioxino[2,3-c]pyridazin-3-ylmethyl)-amino]tetrahydro-pyran-2-yl}-2-(6-fluoro-3-methoxy-quinoxalin-5-yl)-ethanol]	≤ 0.031 µg/mL
[2H][C@](O)(Cc1c(F)cnc2ccc(OC)nc12)[C@@H]1CC[C@@H](NCc2cc3c(cn2)OCCO3)CO1 (single isomer, unassigned) [Example 18]	≤ 0.031 µg/mL
COc1ccc2ncc(F)c(C[C@H](O)[C@@H]3CC[C@@H](NCc4cc5c(cn4)OCCS5)CO3)c2n1 [Example 6, (1S)-1-{(2S,5R)-5-[(2,3-dihydro-4-oxa-1-thia-6-aza-naphthalen-7-ylmethyl)-amino]-tetrahydro-pyran-2-yl}-2-(3-fluoro-6-methoxy-[1,5]naphthyridin-4-yl)-ethanol]	≤ 0.031 µg/mL
[2H]C(N[C@@H]1CC[C@@H]([C@@H](O)Cc2c(F)cnc3ccc(OC)nc23)OC1)c1cc2c(cn1)OCCS2 (stereo partly drawn) [Example 19, (S)-1-((2S,5R)-5-(((2,3-dihydro-[1,4]oxathiino[2,3-c]pyridin-7-yl)methyl-d1)amino)tetrahydro-2H-pyran-2-yl)-2-(3-fluoro-6-methoxy-1,5-naphthyridin-4-yl)ethanol]	≤ 0.031 µg/mL

Same assay, conditions: comparison table of compounds of formula ICOMP

Molecule	MIC for S. aureus A798
COc1ccc2ncc(F)c(C[C@H](O)[C@@H]3CC[C@@H](NCc4cc5c(cn4)OCCO5)CO3)c2n1 [Example 3, (1S)-1-{(2S,5R)-5-[(2,3-dihydro-[1,4]dioxino[2,3-c]pyridin-7-ylmethyl)-amino]-tetrahydro-pyran-2-yl}-2-(3-fluoro-6-methoxy-[1,5]naphthyridin-4-yl)-ethanol]	≦0.031 mg/l
COc1ccc2ncc(F)c(C[C@H](O)[C@@H]3CC[C@@H](NCc4cc5c(nn4)OCCO5)CO3)c2n1 [Example 4, (1S)-1-{(2S,5R)-5-[(6,7-dihydro-[1,4]dioxino[2,3-c]pyridazin-3-ylmethyl)-amino]-tetrahydro-pyran-2-yl}-2-(3-fluoro-6-methoxy-[1,5]naphthyridin-4-yl)-ethanol]	≦0.031 mg/l

Same assay, conditions: microdilution

Molecule	MIC for S. aureus A798
(S)-((1S,5R)-5-(((2,3-dihydro-[1,4]oxathiino[2,3-c]pyridin-7-yl)methyl)amino)tetrahydro-2H-pyran-2-yl)-2-(3-fluoro-6-methoxy-1,5-naphthyridin-4-yl)ethanol-1-d1 [Example 22]	≦0.031 mg/l
(1S)-1-((2S,5R)-5-(((2,3-dihydro-[1,4]dioxino-2,2,3,3-d4-[2,3-c]pyridin-7-yl)methyl)amino)tetrahydro-2H-pyran-2-yl)-2-(3-fluoro-6-methoxy-1,5-naphthyridin-4-yl)ethanol [Example 17]	≦0.031 mg/l
